Experimental data as given in US20170369444A1, “INHIBITORS OF HISTONE DEMETHYLASES” (Gilead Sciences, Inc., priority 2014, published 2017).

Key:
Assay type in all cases: biochemical
KDM2B (FBXL10) = target: T1, KDM2B (FBXL10) (Homo sapiens, UniProt Q8NHM5); test: Histone lysine demethylase AlphaLISA assay, KDM2B; settings: in vitro enzyme, read-out: KDM2B IC50 (HDME Inhibition)
T1 construct: 1-650; purchased BPS Bioscience, US; host or cells: Bac (baculovirus/insect cells)
T1 sequence (Q8NHM5 1-650): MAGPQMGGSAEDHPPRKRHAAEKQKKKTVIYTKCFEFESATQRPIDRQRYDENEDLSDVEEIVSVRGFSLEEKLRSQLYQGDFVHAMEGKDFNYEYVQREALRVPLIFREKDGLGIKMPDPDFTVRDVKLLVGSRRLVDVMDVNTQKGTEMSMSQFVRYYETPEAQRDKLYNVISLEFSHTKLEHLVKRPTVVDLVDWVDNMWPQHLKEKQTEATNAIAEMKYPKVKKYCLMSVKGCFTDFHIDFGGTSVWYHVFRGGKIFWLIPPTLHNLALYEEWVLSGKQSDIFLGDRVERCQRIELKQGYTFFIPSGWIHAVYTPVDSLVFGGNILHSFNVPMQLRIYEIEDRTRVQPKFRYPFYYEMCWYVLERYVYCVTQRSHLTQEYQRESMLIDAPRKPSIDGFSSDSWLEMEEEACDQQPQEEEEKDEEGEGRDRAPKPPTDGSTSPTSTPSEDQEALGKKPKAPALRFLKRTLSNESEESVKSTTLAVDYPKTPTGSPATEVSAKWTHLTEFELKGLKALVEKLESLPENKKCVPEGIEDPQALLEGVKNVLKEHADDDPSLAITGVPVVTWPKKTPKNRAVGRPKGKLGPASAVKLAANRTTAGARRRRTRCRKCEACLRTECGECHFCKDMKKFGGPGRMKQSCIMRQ
Protocol: (§1) Histone lysine demethylase AlphaLISA assays are performed to determine IC50 values. […] Assays are performed analogously to the protocol described by PerkinElmer (Roy et al. PerkinElmer Technical Note: AlphaLISA #12, April 2011).
(§2) Assays are performed analogously to the protocol described by PerkinElmer (Roy et al. PerkinElmer Technical Note: AlphaLISA #12, April 2011).
(§3) Enzymes (final assay concentration 0.1-2.5 nM) are dissolved in enzyme buffer and incubated for 10 min before 5 μL is added to 5 μL 3% DMSO solutions of compounds in enzyme buffer, incubated for another 10 minutes, before 5 μL substrate solution is added and the reaction mixture is incubated at room temperature. 10 μL acceptor beads, suspended Epigenetic Buffer (Perkin Elmer AL008) from stock, are added and the suspension is incubated in the dark at room temperature, before 10 μL suspension of streptavidin donor beads (Perkin Elmer 6760002) in Epigenetic Buffer is added. After incubation at room temperature in the dark the plates are read.
(§4) Substrate solution: Substrate (final assay concentration 50-200 nM), 50 mM Hepes (pH 7.4-8.0), 0.003% Tween-20, 0.1% BS, 25 μM L-Asc, 10 μM α-KG. Enzyme Buffer: 50 mM Hepes (pH 7.4-8.0), 0.003% Tween-20, 0.1% BSA; 5 μM (NH4)2Fe(SO4)2

KDM5B (PLU-1) = target: T2, KDM5B (PLU-1) (Homo sapiens, UniProt Q9UGL1); test: Histone lysine demethylase AlphaLISA assay, KDM5B; settings: in vitro enzyme, read-out: KDM5B IC50 (HDME Inhibition)
T2 construct: 1-809; host or cells: E. coli
T2 sequence (Q9UGL1 1-809): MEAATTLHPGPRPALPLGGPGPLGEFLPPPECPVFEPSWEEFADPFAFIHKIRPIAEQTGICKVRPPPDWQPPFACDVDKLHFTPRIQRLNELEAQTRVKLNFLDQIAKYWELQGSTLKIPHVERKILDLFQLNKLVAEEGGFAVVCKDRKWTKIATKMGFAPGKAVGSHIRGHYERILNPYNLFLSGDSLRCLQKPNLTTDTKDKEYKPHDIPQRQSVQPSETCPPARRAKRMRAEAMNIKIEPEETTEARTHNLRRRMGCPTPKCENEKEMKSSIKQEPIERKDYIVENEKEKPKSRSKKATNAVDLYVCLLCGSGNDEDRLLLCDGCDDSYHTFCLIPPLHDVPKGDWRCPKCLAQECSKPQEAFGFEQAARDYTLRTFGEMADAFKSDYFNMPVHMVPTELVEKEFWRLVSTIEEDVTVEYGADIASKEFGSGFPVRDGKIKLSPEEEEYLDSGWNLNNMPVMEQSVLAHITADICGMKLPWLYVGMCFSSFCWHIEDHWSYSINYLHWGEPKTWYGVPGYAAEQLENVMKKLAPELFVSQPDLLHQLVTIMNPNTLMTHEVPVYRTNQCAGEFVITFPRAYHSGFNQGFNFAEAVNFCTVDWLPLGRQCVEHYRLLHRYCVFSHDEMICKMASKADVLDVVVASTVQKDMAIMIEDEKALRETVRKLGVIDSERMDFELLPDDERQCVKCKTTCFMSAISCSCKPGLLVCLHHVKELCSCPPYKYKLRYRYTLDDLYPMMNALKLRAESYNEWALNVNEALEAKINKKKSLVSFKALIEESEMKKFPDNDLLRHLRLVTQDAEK
Protocol: as §1, §2, §3, §4

KDM6A (UTX) = target: T3, KDM6A (UTX) (Homo sapiens, UniProt O15550); test: Histone lysine demethylase AlphaLISA assay, KDM6A; settings: in vitro enzyme, read-out: KDM6A IC50 (HDME Inhibition)
T3 construct: 919-1401; host or cells: E. coli
T3 sequence (O15550 919-1401): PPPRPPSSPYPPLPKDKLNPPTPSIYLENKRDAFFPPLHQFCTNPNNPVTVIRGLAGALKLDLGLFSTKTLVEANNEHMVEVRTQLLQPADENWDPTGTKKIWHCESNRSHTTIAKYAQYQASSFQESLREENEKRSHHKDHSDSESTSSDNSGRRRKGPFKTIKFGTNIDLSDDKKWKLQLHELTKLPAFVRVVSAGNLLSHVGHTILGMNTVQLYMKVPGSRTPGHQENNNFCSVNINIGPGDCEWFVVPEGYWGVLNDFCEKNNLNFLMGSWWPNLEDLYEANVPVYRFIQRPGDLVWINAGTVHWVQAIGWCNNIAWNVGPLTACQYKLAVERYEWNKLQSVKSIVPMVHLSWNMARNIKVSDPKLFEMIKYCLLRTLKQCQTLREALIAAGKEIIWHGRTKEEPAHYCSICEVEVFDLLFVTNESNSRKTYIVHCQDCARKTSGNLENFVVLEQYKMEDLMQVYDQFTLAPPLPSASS
Protocol: as §1, §2, §3, §4

PHF8 (KDM7) = PHF8 (KDM7) (Homo sapiens, UniProt Q9UPP1); test: Histone lysine demethylase AlphaLISA assay, PHF8; settings: in vitro enzyme, read-out: PHF8 IC50 (HDME Inhibition)
Sequence of PHF8 (KDM7) (Q9UPP1 whole entry): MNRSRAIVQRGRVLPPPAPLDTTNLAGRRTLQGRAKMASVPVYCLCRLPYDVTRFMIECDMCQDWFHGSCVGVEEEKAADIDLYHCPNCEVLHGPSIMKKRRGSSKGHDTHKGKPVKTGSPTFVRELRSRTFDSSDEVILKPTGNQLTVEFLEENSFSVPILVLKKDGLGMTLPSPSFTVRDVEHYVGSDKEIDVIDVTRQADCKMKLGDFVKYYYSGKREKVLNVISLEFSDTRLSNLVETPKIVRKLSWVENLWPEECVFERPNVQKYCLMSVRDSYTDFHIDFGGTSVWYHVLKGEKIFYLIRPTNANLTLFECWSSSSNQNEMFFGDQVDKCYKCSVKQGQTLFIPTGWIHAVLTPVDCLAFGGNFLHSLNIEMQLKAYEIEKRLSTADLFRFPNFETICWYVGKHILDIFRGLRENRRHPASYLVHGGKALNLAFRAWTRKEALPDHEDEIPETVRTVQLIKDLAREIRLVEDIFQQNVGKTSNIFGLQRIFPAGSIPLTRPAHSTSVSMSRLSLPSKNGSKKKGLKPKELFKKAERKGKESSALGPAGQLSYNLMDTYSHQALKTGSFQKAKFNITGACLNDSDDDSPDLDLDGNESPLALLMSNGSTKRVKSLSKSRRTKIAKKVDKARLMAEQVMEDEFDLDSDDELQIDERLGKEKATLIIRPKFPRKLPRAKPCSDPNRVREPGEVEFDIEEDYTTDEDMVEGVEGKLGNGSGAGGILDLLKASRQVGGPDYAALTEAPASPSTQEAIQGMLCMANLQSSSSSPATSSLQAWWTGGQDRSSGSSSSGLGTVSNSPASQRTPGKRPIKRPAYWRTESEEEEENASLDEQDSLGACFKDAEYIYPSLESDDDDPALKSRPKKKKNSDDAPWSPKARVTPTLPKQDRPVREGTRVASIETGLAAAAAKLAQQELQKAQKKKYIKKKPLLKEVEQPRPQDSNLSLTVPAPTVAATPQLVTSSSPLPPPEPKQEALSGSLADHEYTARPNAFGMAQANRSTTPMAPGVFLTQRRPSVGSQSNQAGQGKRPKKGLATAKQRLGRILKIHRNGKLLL
Protocol: as §1, §2, §3, §4

Row | Compound | IC50 (KDM2B (FBXL10)) | IC50 (KDM5B (PLU-1)) | IC50 (KDM6A (UTX)) | IC50 (PHF8 (KDM7))
1 | C=CCN(CC=C)C(=O)[C@H](CC(=O)NCC1(CO)CC1)NCc1cc(C(=O)O)ccn1 [Compound 11, 2-({[(1S)-1-[bis(prop-2-en-1-yl)carbamoyl]-2-({[1-(hydroxymethyl)cyclo-propyl]methyl}carba-moyl)ethyl]amino}methyl)pyridine-4-carboxylic acid] | 250 to 2500 nM | 250 to 2500 nM |  | 
2 | C=CCN(CC=C)C(=O)[C@H](CCCCNC(=O)NC(C)(C)C)NCc1cc(C(=O)O)ccn1 [Compound 9, 2-({[(1S)-1-[bis(prop-2-en-1-yl)carbamoyl]-5-[(tert-butylcarbamoyl)amino]pentyl]amino}methyl) pyridine-4-carboxylic acid] |  | 250 to 2500 nM | > 2500 nM | > 2500 nM
3 | CC(N[C@@H](C)C(=O)NCc1ccccc1[N+](=O)[O-])c1cc(C(=O)O)ccn1 (stereo partly drawn) [Compound 8, 2-(1-{[(1S)-1-{[(2-nitrophenyl)methyl]carbamoyl}ethyl]amino}ethyl)pyridine-4-carboxylic acid] |  | > 2500 nM | > 2500 nM | > 2500 nM
4 | C=CCN(CC=C)C(=O)[C@H](CCCCNC(=O)OC(C)(C)C)NCc1cc(C(=O)O)ccn1 [Compound 40, 2-({[(1S)-1-[bis(prop-2-en-1-yl)carbamoyl]-5-{[(tert-butoxy)carbonyl]amino}pentyl]amino}methyl) pyridine-4-carboxylic acid] | 250 to 2500 nM | 250 to 2500 nM |  | 
5 | CC(N[C@H](C)c1nccs1)c1cc(C(=O)O)ccn1 (stereo partly drawn) [Compound 30, 2-(1-{[(1R)-1-(1,3-thiazol-2-yl)ethyl]amino}ethyl) pyridine-4-carboxylic acid] |  | > 2500 nM | > 2500 nM | 250 to 2500 nM
6 | C=CCN(CC=C)C(=O)[C@H](CCS(C)(=O)=O)NCc1cc(C(=O)O)ccn1 [Compound 29, 2-({[(1S)-1-[bis(prop-2-en-1-yl)carbamoyl]-3-methanesulfonylpropyl]amino}methyl)pyridine-4-carboxylic acid] |  | > 2500 nM |  | > 2500 nM
7 | CC(c1cc(C(=O)O)ccn1)N(C)CC(=O)N1CCCCC1 (stereo not drawn) [Compound 47, 2-(1-{methyl[2-oxo-2-(piperidin-1-yl)ethyl]amino}ethyl) pyridine-4-carboxylic acid] | 250 to 2500 nM | > 2500 nM |  | 
8 | CC(C)C[C@@H](COCc1ccccc1)NCc1cc(C(=O)O)ncn1 [Compound 89, 6-({[(2S)-1-(benzyloxy)-4-methylpentan-2-yl]amino}methyl) pyrimidine-4-carboxylic acid] |  |  | > 2500 nM | 250 to 2500 nM
9 | C=CCN(CC=C)C(=O)[C@@H](CCCCNCCC)NCc1cc(C(=O)O)ccn1 [Compound 3, 2-({[(1R)-1-[bis(prop-2-en-1-yl)carbamoyl]-5-(propylamino)pentyl]amino}methyl)pyridine-4-carboxylic acid] |  | > 2500 nM |  | 250 to 2500 nM
10 | O=C(O)c1ccnc(CNCC(=O)N2CCCCC2)n1 [Compound 23, 2-({[2-oxo-2-(piperidin-1-yl)ethyl]amino}methyl) pyrimidine-4-carboxylic acid] | 250 to 2500 nM | > 2500 nM |  | 
11 | O=C(O)c1ccnc(CNCc2cn(Cc3ccc(F)cc3)c3ncccc23)c1 [Compound 83, 2-[({[1-(4-fluorobenzyl)-1H-pyrrolo[2,3-b]pyridin-3-yl]methyl}amino)methyl]pyridine-4-carboxylic acid] |  | 250 to 2500 nM | > 2500 nM | < 250 nM
12 | C=CCN(CC=C)C(=O)[C@H](CCCCN(C)C(=O)NC)NCc1cc(C(=O)O)ccn1 [Compound 20, 2-({[(1S)-1-[bis(prop-2-en-1-yl)carbamoyl]-5-[methyl(methylcarba-moyl)amino]pentyl]amino}methyl)pyridine-4-carboxylic acid] |  | 250 to 2500 nM | > 2500 nM | > 2500 nM

The remaining lines, values ahead:

Row | IC50 (KDM2B (FBXL10)) | IC50 (KDM5B (PLU-1)) | IC50 (KDM6A (UTX)) | IC50 (PHF8 (KDM7)) | Compound
13 |  | 250 to 2500 nM | > 2500 nM | > 2500 nM | O=C(O)c1ccnc(CN2CC[C@H]2CO)c1 [Compound 64, 2-{[(2S)-2-(hydroxymethyl)azetidin-1-yl]methyl}pyridine-4-carboxylic acid]
14 |  | < 250 nM |  | 250 to 2500 nM | O=C(O)c1ccnc(CN2CCC[C@H]2CO)c1 [Compound 58, 2-{[(2S)-2-(hydroxymethyl)pyrrolidin-1-yl]methyl}pyridine-4-carboxylic acid]
15 |  | < 250 nM |  | < 250 nM | O=C(O)c1ccnc(CN2CCC[C@@H]2CO)c1 [Compound 57, 2-{[(2R)-2-(hydroxymethyl)pyrrolidin-1-yl]methyl}pyridine-4-carboxylic acid]
16 |  | 250 to 2500 nM | > 2500 nM | 250 to 2500 nM | CCNC(=O)C[C@@H]1CCN(Cc2cc(C(=O)O)ccn2)C1 [Compound 77, 2-{[(3S)-3-[(ethylcarbamoyl)methyl]pyrrolidin-1-yl]methyl}pyridine-4-carboxylic acid]
17 |  | 250 to 2500 nM | > 2500 nM | > 2500 nM | CCNC(=O)C1CCCN(Cc2cc(C(=O)O)ccn2)C1 (stereo not drawn) [Compound 74, 2-{[3-(ethylcarbamoyl)piper-idin-1-yl]methyl}pyridine-4-carboxylic acid]
18 | 250 to 2500 nM | < 250 nM |  |  | CCN(CC)C(=O)CCN(CCO)Cc1cc(C(=O)O)ccn1 [Compound 44, 2-({[2-(diethylcarbamoyl)ethyl](2-hydroxyethyl)amino}methyl)pyridine-4-carboxylic acid]
19 |  | > 2500 nM |  | 250 to 2500 nM | O=C(O)c1ccnc(CN2CCC[C@@H]2C(=O)N2CCCCC2)c1 [Compound 56, 2-{[(2R)-2-(piperidine-1-carbonyl)pyrrolidin-1-yl]methyl}pyridine-4-carboxylic acid]
20 |  | < 250 nM | > 2500 nM | < 250 nM | O=C(O)c1ccnc(CNCc2cccnc2)c1 [Compound 84, 2-{[(pyridin-3-ylmethyl)amino]methyl}pyridine-4-carboxylic acid]
21 |  | 250 to 2500 nM | > 2500 nM | 250 to 2500 nM | CCNC(=O)C1CCN(Cc2cc(C(=O)O)ccn2)C1 (stereo not drawn) [Compound 76, 2-{[3-(ethylcarbamoyl)pyrrolidin-1-yl]methyl}pyridine-4-carboxylic acid]
22 |  | > 2500 nM |  | > 2500 nM | O=C(O)c1ccnc(CN2CCC[C@H]2C(=O)N2CCCCC2)c1 [Compound 55, 2-{[(2S)-2-(piperidine-1-carbonyl)pyrrolidin-1-yl]methyl}pyridine-4-carboxylic acid]
23 |  | > 2500 nM | > 2500 nM | > 2500 nM | CC[C@H]1CCN(Cc2cc(C(=O)O)ccn2)[C@@H]1CO [Compound 65, 2-{[(2S,3S)-3-ethyl-2-(hydroxymethyl)pyrrolidin-1-yl]methyl}pyridine-4-carboxylic acid]
